Data reported in ChEMBL document CHEMBL1140541, “Potent 2'-aminoanilide inhibitors of cFMS as potential anti-inflammatory agents” (Bioorg Med Chem Lett, 2007).

Legend:
[1] = biological target: T1, Macrophage colony-stimulating factor 1 receptor (Homo sapiens, UniProt P07333); assay: Inhibition of ATP-induced autophosphorylation of cFMS tyrosine kinase
[2] = biological target: T1, Macrophage colony-stimulating factor 1 receptor; assay: Inhibition of ATP-induced autophosphorylation of cFMS tyrosine kinase in HEK 293 cells; assay type: cell-based, HEK293
[3] = Metabolic stability in human liver microsomes after 10 mins; assay type: ADME, Microsome; settings: read-out: Stability

T1 sequence (P07333 whole entry): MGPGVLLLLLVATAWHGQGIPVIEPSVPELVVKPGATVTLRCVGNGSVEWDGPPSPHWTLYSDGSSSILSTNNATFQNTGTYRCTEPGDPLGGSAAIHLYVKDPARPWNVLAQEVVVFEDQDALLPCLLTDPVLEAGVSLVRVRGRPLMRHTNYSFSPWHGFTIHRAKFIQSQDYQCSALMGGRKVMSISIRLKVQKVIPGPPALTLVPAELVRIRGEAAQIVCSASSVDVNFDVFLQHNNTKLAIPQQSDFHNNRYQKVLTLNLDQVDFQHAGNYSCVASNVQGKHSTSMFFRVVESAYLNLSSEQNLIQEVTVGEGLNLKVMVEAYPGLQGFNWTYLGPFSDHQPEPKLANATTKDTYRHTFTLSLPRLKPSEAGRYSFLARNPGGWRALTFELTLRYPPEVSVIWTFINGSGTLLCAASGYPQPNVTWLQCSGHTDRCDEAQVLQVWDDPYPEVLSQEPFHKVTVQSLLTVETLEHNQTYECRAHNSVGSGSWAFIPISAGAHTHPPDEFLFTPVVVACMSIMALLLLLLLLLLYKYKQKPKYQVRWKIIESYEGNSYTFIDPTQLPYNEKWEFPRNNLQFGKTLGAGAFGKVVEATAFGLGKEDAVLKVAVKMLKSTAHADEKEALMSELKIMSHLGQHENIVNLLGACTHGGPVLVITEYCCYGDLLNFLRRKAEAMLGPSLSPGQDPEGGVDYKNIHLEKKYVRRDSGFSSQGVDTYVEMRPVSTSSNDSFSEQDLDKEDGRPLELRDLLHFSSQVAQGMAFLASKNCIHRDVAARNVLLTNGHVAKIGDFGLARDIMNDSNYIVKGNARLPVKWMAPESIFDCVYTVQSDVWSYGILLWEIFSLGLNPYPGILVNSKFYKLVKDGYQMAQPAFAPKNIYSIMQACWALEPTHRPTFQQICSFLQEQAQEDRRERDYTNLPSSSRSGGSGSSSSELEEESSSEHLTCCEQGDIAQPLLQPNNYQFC

With `CCCN(CCC)c1ccccc1NC(=O)c1ccc([N+](=O)[O-])o1` the IC50 [1] was over 10000 nM.

Work on `O=C(Nc1ccccc1Nc1ccccc1)c1ccc([N+](=O)[O-])o1` yielded an IC50 [1] of over 10000 nM.

In the case of `O=C(Nc1ccccc1N1CCC(O)CC1)c1ccc([N+](=O)[O-])o1`, the IC50 [1] is reported as 140 nM and the IC50 [2] is reported as 370 nM.

For `O=C(Nc1ccccc1N1CCC1)c1ccc([N+](=O)[O-])o1`, the IC50 [1] was over 10000 nM.

Compound `O=C(Nc1ccccc1N1CCC(CO)CC1)c1ccc([N+](=O)[O-])o1` has an IC50 [1] of 130 nM and an IC50 [2] of 1400 nM.

`O=C(O)c1ccc(C(=O)Nc2ccccc2N2CCCCC2)o1` gave an IC50 [1] of over 10000 nM.

In the case of `O=C(Nc1ccccc1N1CCCCC1)c1ccc(C(F)(F)F)o1`, the IC50 [1] is reported as over 10000 nM.

For `N#Cc1ccc(C(=O)Nc2ccccc2N2CCCCC2)o1`, the IC50 [1] was 36 nM and the IC50 [2] was 370 nM.

In the case of `N#Cc1ccc(C(=O)Nc2cc(O)ccc2N2CCCCC2)o1`, the IC50 [1] is reported as 17 nM and the IC50 [2] is reported as 2700 nM.

With `COc1ccc(N2CCCCC2)c(NC(=O)c2ccc(C#N)o2)c1` the IC50 [1] was 90 nM and the IC50 [2] was 960 nM.

For `N#Cc1ccc(C(=O)Nc2cc(CN)ccc2N2CCCCC2)o1`, the IC50 [1] was 200 nM and the IC50 [2] was 3100 nM.

`N#Cc1ccc(C(=O)Nc2cc(C=O)ccc2N2CCCCC2)o1` gave an IC50 [1] of 37 nM and an IC50 [2] of 330 nM.

`N#Cc1ccc(C(=O)Nc2cc(C(=O)O)ccc2N2CCCCC2)o1` gave an IC50 [1] of over 2000 nM and an IC50 [2] of over 2000 nM.

`N#Cc1ccc(C(=O)Nc2cc(N3CCCCC3)ccc2N2CCCCC2)o1` gave an IC50 [1] of 17 nM and an IC50 [2] of 76 nM.

`O=C(Nc1ccccc1N1CCCC1)c1ccc([N+](=O)[O-])o1` gave an IC50 [1] of 1900 nM.

With `CS(=O)(=O)NCc1ccc(N2CCCCC2)c(NC(=O)c2ccc(C#N)o2)c1` the IC50 [1] was 37 nM and the IC50 [2] was 310 nM.

For `O=C(Nc1ccccc1N1C=CC=CC=C1)c1ccc([N+](=O)[O-])o1`, the IC50 [1] was 260 nM and the IC50 [2] was 2000 nM.

In the case of `CC1CCCCN1c1ccccc1NC(=O)c1ccc([N+](=O)[O-])o1` (stereo unspecified), the IC50 [1] is reported as 720 nM.

For `O=C(Nc1ccccc1N1CCCCC1)c1ccco1`, the IC50 [1] was over 10000 nM.

`O=C(Nc1ccccc1N1CCCCC1)c1ccc(Nc2ccccc2)o1` showed an IC50 [1] of over 10000 nM.

In the case of `O=C(Nc1ccccc1N1CCCCC1)c1ccc(-c2ccccc2)o1`, the IC50 [1] is reported as over 10000 nM.

`O=C(Nc1ccccc1N1CCCCC1)c1ccc(Br)o1` showed an IC50 [1] of 4400 nM.

For `O=C(Nc1ccccc1N1CCCCC1)c1ccc(Cl)o1`, the IC50 [1] was 1900 nM.

With `O=C(Nc1ccccc1N1CCC(CCO)CC1)c1ccc([N+](=O)[O-])o1` the IC50 [1] was 43 nM and the IC50 [2] was 230 nM.

Compound `O=C(Nc1ccccc1N1CCOCC1)c1ccc([N+](=O)[O-])o1` has an IC50 [1] of 1100 nM.

Compound `O=C(Nc1ccccc1N1CCNCC1)c1ccc([N+](=O)[O-])o1` has an IC50 [1] of over 10000 nM.

For `CCCN(CC)c1ccccc1NC(=O)c1ccc([N+](=O)[O-])o1`, the IC50 [1] was over 10000 nM.

For `CC1CCN(c2ccccc2NC(=O)c2ccc([N+](=O)[O-])o2)CC1`, the IC50 [1] was 78 nM, the IC50 [2] was 300 nM and the remaining at 10 min [3] was 100%.

`N#Cc1ccc(C(=O)Nc2cc(COCC(O)CO)ccc2N2CCCCC2)o1` (stereo unspecified) gave an IC50 [1] of 19 nM and an IC50 [2] of 170 nM.

Compound `O=C(Nc1ccccc1N1CCCCC1)c1cc([N+](=O)[O-])c[nH]1` has an IC50 [1] of 47 nM and an IC50 [2] of 180 nM.

In the case of `N#Cc1c[nH]c(C(=O)Nc2ccccc2N2CCCCC2)c1`, the IC50 [1] is reported as 47 nM and the IC50 [2] is reported as 150 nM.

In the case of `O=C(Nc1ccccc1N1CCC(CO)C1)c1ccc([N+](=O)[O-])o1` (stereo unspecified), the IC50 [1] is reported as over 10000 nM.

In the case of `O=Cc1ccc(C(=O)Nc2ccccc2N2CCCCC2)o1`, the IC50 [1] is reported as 1100 nM.

`O=C(Nc1ccccc1N1CCC(O)C1)c1ccc([N+](=O)[O-])o1` (stereo unspecified) showed an IC50 [1] of over 10000 nM.

Compound `N#Cc1ccc(C(=O)Nc2cc(CO)ccc2N2CCCCC2)o1` has an IC50 [1] of 25 nM, an IC50 [2] of 190 nM and a remaining at 10 min [3] of 25%.

In the case of `N#Cc1ccc(N2CCCCC2)c(NC(=O)c2ccc(C#N)o2)c1`, the IC50 [1] is reported as 120 nM and the IC50 [2] is reported as 750 nM.

With `O=C(Nc1ccccc1N1CCN(c2ccccc2)CC1)c1ccc([N+](=O)[O-])o1` the IC50 [1] was over 10000 nM.

`NC(=O)c1ccc(C(=O)Nc2ccccc2N2CCCCC2)o1` gave an IC50 [1] of over 10000 nM.

With `N#Cc1ccc(C(=O)Nc2cc(CN=C(N)N)ccc2N2CCCCC2)o1` the IC50 [1] was 34 nM and the IC50 [2] was 2600 nM.

Compound `CC1CCN(c2ccc(CO)cc2NC(=O)c2ccc(C#N)o2)CC1` has a remaining at 10 min [3] of 83%.

Compound `Nc1ccc(C(=O)Nc2ccccc2N2CCCCC2)o1` has an IC50 [1] of over 10000 nM.

Compound `CC1CC(C)CN(c2ccccc2NC(=O)c2ccc([N+](=O)[O-])o2)C1` (stereo unspecified) has an IC50 [1] of 5300 nM.

For `O=C(Nc1ccccc1N1CCCCC1)c1ccc([N+](=O)[O-])o1`, the remaining at 10 min [3] was 41%.

For `CC1CCCN(c2ccccc2NC(=O)c2ccc([N+](=O)[O-])o2)C1` (stereo unspecified), the IC50 [1] was 380 nM and the IC50 [2] was 2200 nM.
